The record followed here is patent US6579859B1 (priority 2002, dated 2003).

Several values for one entry are separate records, joined by “and”; a condition that tells them apart may be missing. Equal entries are not always repeated. Bounds are passed on as bounds.

Holding throughout (format): cell-based
One assay deals with Acanthamoeba (Cyst). Briefly: Acanthamoeba cyst toxicity test (minimal lethal concentration). The note with it: 24 hours exposure at 30° C.; no trophozoites after 6 days; replicate tests. As to the method:
E. coli (ATCC#25922) were grown in Difaco Bacto nutrient agar and killed via UV light for use as nutrient for the Acanthamoeba cysts. The killed E. coli were placed on a non-nutrient agar plate. 1-2 drops of washed Acanthamoeba (from Tennessee Technological University) from a 2-3 day old plate were placed on the plate and incubated for 2-3 days at 30° C. A biofilm was prepared by placing approximately 9 milliliters of the active E. coli culture in sterile coplin jars containing 4 cover slips and incubating over night. The cover slips were rinsed in Osterhout-tris buffer and placed on 2-3 day old Acanthamoeba trophozoite plates and incubated for 7 days. In 7 days, the trophozoites will exhaust the E. coli nutrients and form cysts. The cover slips were soaked in approximately 9 milliliters of Osterhout-tris buffer and the cover slips placed in coplin jars. 50 ppm dilutions of the biocides to be tested were added to the coplin jars containing the cover slips with cysts and the coplin jars were incubated at 30° C. for 24 hours.
After 24 hours, the test solutions were removed and the cover slips soaked in Osterhout-tris buffer for 30 minutes. The cover slips were placed on non-nutrient agar plates with live E. coli. The plates were observed using an inverted microscope every day for 6 days to see if trophozoites were present. If trophozoites appeared, the test was positive. […]

A further assay relates to Acanthamoeba Trophozoite. Put plainly: Acanthamoeba trophozoite toxicity test (minimal lethal concentration). The note with it: 24 hours at 30°; all organisms dead in all replicate wells; replicate tests. As to the method: E. coli (ATCC #25922) grown in Difco Bacto nutrient agar and killed via UV light were used as nutrient for the Acanthamoeba. The killed E. coli were placed on a non-nutrient agar plate. 1-2 drops of washed Acanthamoeba Trophozoite (from Tennessee Technological University) were placed on the plate and incubated for 2-3 days at 30° C. An inoculum was prepared by placing about 2 ml of Osterhout-tris buffer onto the 2-3 day old plates. A sterile loop was used to dislodge the Trophozoites from the agar surface. The liquid was transferred to a sterile tube and diluted 1:10. 10 micro liters were placed on a slide and counted to confirm about 90 Acanthamoeba per 10 micro liters for the test. This solution was placed in a standard 96 well test plate with successive 50% dilutions per row. A 400 ppm solution of toxicants in Osterhout-tris buffer was prepared. Toxicants were added to 3 adjacent wells for testing. To avoid cross contamination, a well was skipped between each 3 replicate wells in every row and every other row skipped on the plate. The plate was incubated at 30° for 24 hours. An inverted microscope was used to observe the organisms in the wells. Cytoplasm will move in live amoeba and/or the contractile vacuoles will remain active. All organisms had to be dead in a well to have a negative reading. […]

In assay [1] the test system is Tetrahymena (Trophozoite). Briefly: Tetrahymena toxicity test (minimal lethal concentration). As to conditions: lowest concentration at which all Tetrahymena were dead in all replicate wells; replicate tests. As for the experimental part: Tetrahymena cells from a commercial source were grown in PCB broth in a tissue culture flask. The cells were removed from the broth via centrifuge and suspended in Osterhout-tris buffer at a concentration of no greater than 60 cells per 10 micro liters. A standard 96 well test plate comprising successive 50% dilutions of this cellular solution per row was prepared. Chemicals to be tested were added to 3 adjacent wells. Organism viability was tested via observation through an inverted microscope at time zero and every 24 hours thereafter. Tetrahymena were judged viable if they were motile or had active contractile vacuoles. All organisms in a well had to be dead to have a negative reading. A positive reading indicated all or some viable orgasms in a well. The minimal lethal concentration (MLC) of the test materials to Tetrahymena was the lowest toxicant concentration in which all Tetrahymena were dead in all replicate wells.

For `OC[P+](CO)(CO)CO.[Cl-]` [THPS, Tetra kis hydroxymethyl phosphonium chloride, reference compound], the “Minimal Lethal Concentration, Acanthamoeba (Cyst)” value with Acanthamoeba (Cyst) was >50 µg/mL. Also, in the assay on Acanthamoeba Trophozoite, the “Minimal Lethal Concentration, Acanthanoeba (Trophozoite)” value worked out at 56 µg/mL. Besides, the “Minimal Lethal Concentration, Tetrahymena (Trophozoite)” value in assay [1] was 28 µg/mL.

For the molecule `CCCCCCCCCCCCCC[P+](CCCC)(CCCC)CCCC.[Cl-]` [TBTDPC, Tri-n-butyl-tetradecylphosphonium chloride], in the assay on Acanthamoeba (Cyst), the “Minimal Lethal Concentration, Acanthamoeba (Cyst)” value is 25 μg/ml (4×) and 40 μg/ml. Also, the “Minimal Lethal Concentration, Acanthanoeba (Trophozoite)” value in the assay with Acanthamoeba Trophozoite came out at 2.5 µg/mL. The “Minimal Lethal Concentration, Tetrahymena (Trophozoite)” value in assay [1] was determined as 2.5 µg/mL.
